Source: patent US8383581B2, “Short-chain peptides as parathyroid hormone (PTH) receptor agonist” (Cadila Healthcare Limited, priority 2009, dated 2013)
Where a SMILES comes first, the peptide text is derived from it. [ ]: non-standard residue; d: D form. ξ: configuration not given here. ξαMePhe(2,6-F2) = CC(N)(Cc1c(F)cccc1F)C(=O)O; ξαMePhe(2-F) = CC(N)(Cc1ccccc1F)C(=O)O; hArg = N=C(N)NCCCC[C@H](N)C(=O)O; ξαMeF = CC(N)(Cc1ccccc1)C(=O)O; Nle = CCCC[C@H](N)C(=O)O; ξαMeP = CC1(C(=O)O)CCCN1; Ac5c = NC1(C(=O)O)CCCC1; Ac3c = NC1(C(=O)O)CC1; Aib = CC(C)(N)C(=O)O

Tested on: ovariectomised (OVX) rats
Test: In vivo anti-osteoporosis activity testing in OVX rat model (serum calcium, phosphate, bone parameters)
Set-up: species or system Female Wistar Rats
Conditions: po
From the text: c) In Vivo Anti-Osteoporosis Activity Testing in OVX Rat Model: The ovariectomised (OVX) rats were used to study anti-osteoporosis activity of test compounds (short-chain peptides) in vivo. The OVX rats develop osteopenia due to ovarian hormone deficiency. Osteopenia can be detected as early as 14 days post OVX, increase for the next 100 days and then stabilised (Wronski T. J., et al., Calcif. Tissue Int., 43(3), 1988, 179-183). Detailed Study Protocol to Evaluate the Effects of Anabolic Therapy on Bone Markers and Histomorphometry in OVX Animals: 10 to 11 weeks old Female Wistar Rats (150-200 g) were used. The animals were kept in individually ventilated cages in a room with controlled temperature (23°±3° C.), lighting (12:12 h light-dark cycle) and relative humidity (55±10%). Animals had free access to standard rat chow and water. Protocol for use of animals for conducting this study has been reviewed and approved by Institutional Animal Ethics Committee (IAEC). The animals were marked with picric acid for identification and acclimatized to experimental room conditions for 2 days prior to initiation of the study. For the induction of osteoporosis, rats were bilaterally ovariectomised under anesthesia. For Ovariectomy, Incision was made on dorsa-lateral side near lumbar region of animal. After that, ovary was excised and the veins were tied with ligature before removing ovary to prevent blood loss. Then incision was sutured back with ligature. After Bilateral ovariectomy, animals were allowed to rest for 4 weeks. They were then divided into different groups (n=9) based on their body weight. The groups consisted of a no treatment control, PTH as standard and one or two groups of test compounds (short-chain peptides). The treatment was given for the duration of 6 weeks. At the last day of treatment animals were kept overnight in metabolic cages under fasting for the collection of Urine. Next day, blood was collected after 24 hours of last dosing and animals were sacrificed. Changes in biochemical parameters and bone turnover parameters (Increase in serum Calcium and decrease in Phosphate levels, Acid Phosphatase and TRAP) were evaluated in the urine and serum. After sacrificing, intact femur and tibial bones are removed and cleaned from adherent tissues, muscles and tendons; weighed and collected in formal saline (10% formaldehyde solution). Lumbar vertebra (L5) was excised, carefully cleaned and collected in formal saline. Femur, tibia and Lumbar vertebra-5 (L5) were later processed for histomorphometric evaluation (Zhang L., et al., Tohoku J Exp Med., 1998, 186(2), 131-41; Tanizawa T., et al., Toxicol Lett., 1998, 102, 399-403).

CC[C@H](C)[C@H](NC(=O)[C@H](CCC(=O)O)NC(=O)C(C)(C)NC(=O)[C@@H](NC(=O)C(C)(C)N)C(C)C)C(=O)N[C@@H](CCC(N)=O)C(=O)N[C@@H](CC(C)C)C(=O)N[C@@H](CCSC)C(=O)N[C@@H](Cc1c[nH]cn1)C(=O)N[C@@H](CCC(N)=O)C(=O)N[C@@H](CCCCNC(=N)N)C(=O)N1CCCC1(C)C(=O)N[C@@H](CCCCN)C(=O)NC(C)(Cc1ccccc1)C(N)=O (stereo partly shown) [Seq. ID. 7] (H-[Aib]V[Aib]EIQLMHQ[hArg][ξαMeP]K[ξαMeF]-NH2)
% decrease in serum PO4 Levels (mg/dl) vs control (1 mg/kg): 88% | % increase in serum Ca^2+ Levels (mg/dl) vs control (1 mg/kg): 90%

CC[C@H](C)[C@H](NC(=O)[C@H](CCC(=O)O)NC(=O)C(C)(C)NC(=O)[C@@H](NC(=O)C1(N)CC1)C(C)C)C(=O)N[C@@H](CCC(N)=O)C(=O)N[C@@H](CC(C)C)C(=O)N[C@@H](CCSC)C(=O)N[C@@H](Cc1c[nH]cn1)C(=O)N[C@@H](CCC(N)=O)C(=O)N[C@@H](CCCCNC(=N)N)C(=O)N1CCCC1(C)C(=O)N[C@@H](CCCCN)C(=O)NC(C)(Cc1ccccc1)C(N)=O (stereo partly shown) [Seq. ID. 12] (H-[Ac3c]V[Aib]EIQLMHQ[hArg][ξαMeP]K[ξαMeF]-NH2)
% decrease in serum PO4 Levels (mg/dl) vs control (5 mg/kg): 102% | % increase in serum Ca^2+ Levels (mg/dl) vs control (5 mg/kg): 118%

CCCC[C@H](NC(=O)C(C)(Cc1c(F)cccc1F)NC(=O)[C@H](CCC(N)=O)NC(=O)[C@@H](NC(=O)[C@H](CCC(=O)O)NC(=O)C(C)(C)NC(=O)[C@@H](NC(=O)C1(N)CC1)C(C)C)[C@@H](C)CC)C(=O)N[C@@H](Cc1c[nH]cn1)C(=O)N[C@@H](CCC(N)=O)C(=O)N[C@@H](CCCCNC(=N)N)C(=O)N[C@@H](C)C(=O)N[C@@H](CCCCN)C(=O)NC(C)(Cc1ccccc1)C(N)=O (stereo partly shown) [Seq. ID. 39] (H-[Ac3c]V[Aib]EIQ[ξαMePhe(2,6-F2)][Nle]HQ[hArg]AK[ξαMeF]-NH2)
% decrease in serum PO4 Levels (mg/dl) vs control (0.03 mg/kg): 66% | % increase in serum Ca^2+ Levels (mg/dl) vs control (0.03 mg/kg): 88%

CCCC[C@H](NC(=O)C(C)(Cc1c(F)cccc1F)NC(=O)[C@H](CCC(N)=O)NC(=O)[C@@H](NC(=O)[C@H](CCC(=O)O)NC(=O)C(C)(C)NC(=O)[C@@H](NC(=O)C(C)(C)N)C(C)C)[C@@H](C)CC)C(=O)N[C@@H](Cc1c[nH]cn1)C(=O)N[C@@H](CCC(N)=O)C(=O)N[C@@H](CCCCNC(=N)N)C(=O)N1CCCC1(C)C(=O)N[C@@H](CCCCN)C(=O)NC(C)(Cc1ccccc1F)C(N)=O (stereo partly shown) [Seq. ID. 72] (H-[Aib]V[Aib]EIQ[ξαMePhe(2,6-F2)][Nle]HQ[hArg][ξαMeP]K[ξαMePhe(2-F)]-NH2)
% decrease in serum PO4 Levels (mg/dl) vs control (0.01 mg/kg): 77% | % increase in serum Ca^2+ Levels (mg/dl) vs control (0.01 mg/kg): 49%

CCCC[C@H](NC(=O)C(C)(Cc1ccccc1F)NC(=O)[C@H](CCC(N)=O)NC(=O)[C@@H](NC(=O)[C@H](CCC(=O)O)NC(=O)C1(NC(=O)[C@@H](NC(=O)C2(N)CCCC2)C(C)C)CCCC1)[C@@H](C)CC)C(=O)N[C@@H](Cc1c[nH]cn1)C(=O)N[C@@H](CCC(N)=O)C(=O)N[C@@H](CCCCNC(=N)N)C(=O)N[C@@H](C)C(=O)N[C@@H](CCCCN)C(=O)NC(C)(Cc1c(F)cccc1F)C(N)=O (stereo partly shown) [Seq. ID. 99] (H-[Ac5c]V[Ac5c]EIQ[ξαMePhe(2-F)][Nle]HQ[hArg]AK[ξαMePhe(2,6-F2)]-NH2)
% decrease in serum PO4 Levels (mg/dl) vs control (2 mg/kg): 89% | % increase in serum Ca^2+ Levels (mg/dl) vs control (2 mg/kg): 99%
